Measured values as given in patent US7365082B2, “N-(substituted arylmethyl)-4-(disubstituted methyl)piperidines and piperazines” (Bayer CropScience AG, priority 2002, dated 2008).

Tested on: tobacco budworm (Heliothis virescens [Fabricius])
Test: surface-treated diet test against tobacco budworm
Assay type: in vivo
Conditions: 0.25 millimoles of candidate insecticide on the surface of the diet, second instar larvae, five-day exposure; for Percent Mortality: compared to the total number of insects infested; for Percent Growth Inhibition: inhibition of insect weight relative to untreated controls
Experimental: Candidate insecticides were evaluated for activity against the tobacco budworm (Heliothis virescens [Fabricius]) in a surface-treated diet test.
In this test one mL of molten (65-70° C.) wheat germ-based artificial diet was pipetted into each well of a four by six (24 well) multi-well plate (ID# 430345-15.5 mm dia.×17.6 mm deep; Corning Costar Corp., One Alewife Center, Cambridge, Mass. 02140). The diet was allowed to cool to ambient temperature before treatment with candidate insecticide.
For a determination of insecticidal activity, solutions of the candidate insecticides were prepared for testing using a Packard 204DT Multiprobe® Robotic System (Packard Instrument Company, 800 Research Parkway, Meriden, Conn. 06450), in which the robot first diluted a standard 50 millimolar DMSO solution of candidate insecticide with a 1:1 water/acetone solution (V/V) in a ratio of 1:7 stock solution to water/acetone. The robot subsequently pipetted 40 microliters of the so-prepared solution onto the surface of the diet in each of three wells in the 24 multi-well plate. The process was repeated with solutions of seven other candidate insecticides. Once treated, the contents of the multi-well plate were allowed to dry, leaving 0.25 millimoles of candidate insecticide on the surface of the diet, or a concentration of 0.25 millimolar. Appropriate untreated controls containing only DMSO on the diet surface were also included in this test.
For evaluations of the insecticidal activity of a candidate insecticide at varying rates of application, the test was established as described above using sub-multiples of the standard 50 millimolar DMSO solution of candidate insecticide. For example, the standard 50 millimolar solution was diluted by the robot with DMSO to give 5, 0.5, 0.05, 0.005, 0.0005 millimolar, or more dilute solutions of the candidate insecticide. In these evaluations there were six replicates of each rate of application placed on the surface of the diet in the 24 multi-well plate, for a total of four rates of application of candidate insecticide in each plate.
In each well of the test plate was placed one second instar tobacco budworm larvea, each weighing approximately five milligrams. After the larvae were placed in each well, the plate was sealed with clear polyfilm adhesive tape. The tape over each well was perforated to ensure an adequate air supply. The plates were then held in a growth chamber at 25° C. and 60% relative humidity for five days (light 14 hours/day).
After the five-day exposure period insecticidal activity for each rate of application of candidate insecticide was assessed as percent inhibition of insect weight relative to the weight of insects from untreated controls, and percent mortality when compared to the total number of insects infested.
The test compounds of formula I are identified by numbers that correspond to those in Table 1.

Structure (SMILES): O=C(c1ccc(C(F)(F)F)cc1)C1CCNCC1 [Compound 3, 4-piperidyl 4-(trfluoromethyl)phenyl ketone]
- Percent Mortality: 100%
- Percent Growth Inhibition: 100%

Structure (SMILES): O=C(c1ccc(OC(F)(F)F)cc1)C1CCN(Cc2ccc(F)cc2)CC1 [Compound 27]
- Percent Mortality: 0%
- Percent Growth Inhibition: 97%

Structure (SMILES): CCCOc1ccc(CN2CCC(C(=O)c3ccc(OC(F)(F)F)cc3)CC2)cc1 [Compound 43]
- Percent Mortality: 100%
- Percent Growth Inhibition: 100%

Structure (SMILES): O=C(c1ccc(OC(F)(F)F)cc1)C1CCN(Cc2ccc(-c3ccccn3)cc2)CC1 [Compound 62]
- Percent Mortality: 100%
- Percent Growth Inhibition: 95%

Structure (SMILES): Cn1nnc(-c2ccc(CN3CCC(C(=O)c4ccc(OC(F)(F)F)cc4)CC3)cc2)n1 [Compound 67]
- Percent Mortality: 100%
- Percent Growth Inhibition: 95%

Structure (SMILES): CCn1nnc(-c2ccc(CN3CCC(C(=O)c4ccc(OC(F)(F)F)cc4)CC3)cc2)n1 [Compound 72, 1-{[4-(2-ethyl(1,2,3,4-tetraazol-5-yl))phenyl]methyl}(4-piperidyl)4-(trifluoromethoxy)phenyl ketone]
- Percent Growth Inhibition: 95%

Structure (SMILES): CC(C)NN=C(c1ccc(C(F)(F)F)cc1)C1CCN(Cc2ccc(-c3nnn(C)n3)cc2)CC1 [Compound 91]
- Percent Mortality: 0%
- Percent Growth Inhibition: 79%

Structure (SMILES): CCn1nnc(-c2ccc(CN3CCC(C(=NNc4ccccn4)c4ccc(OC(F)(F)F)cc4)CC3)cc2)n1 [Compound 92]
- Percent Mortality: 0%
- Percent Growth Inhibition: 45%

Structure (SMILES): CCn1nnc(-c2ccc(CN3CCC(C(=Cc4ccc(OC(F)(F)F)cc4)c4ccc(Cl)cc4)CC3)cc2)n1 [Compound 94]
- Percent Mortality: 100%
- Percent Growth Inhibition: 100%

Structure (SMILES): COc1ccc(CN2CCC(C(=NNc3ccc(OC(F)(F)F)cc3)c3ccc(OC(F)(F)F)cc3)CC2)cc1 [Compound 96]
- Percent Mortality: 100%
- Percent Growth Inhibition: 96%

Structure (SMILES): CCCOc1ccc(CN2CCC(C(=NNc3ccc(OC(F)(F)F)cc3)c3ccc(OC(F)(F)F)cc3)CC2)cc1 [Compound 97]
- Percent Mortality: 100%
- Percent Growth Inhibition: 100%

Structure (SMILES): CCn1nnc(-c2ccc(CN3CCC(C(=NNc4ccc(C)cc4)c4ccc(OC(F)(F)F)cc4)CC3)cc2)n1 [Compound 113]
- Percent Mortality: 100%
- Percent Growth Inhibition: 100%

Structure (SMILES): CCn1nnc(-c2ccc(CN3CCC(C(=NNc4ccc(C(C)C)cc4)c4ccc(OC(F)(F)F)cc4)CC3)cc2)n1 [Compound 114]
- Percent Mortality: 100%
- Percent Growth Inhibition: 100%

Structure (SMILES): CCn1nnc(-c2ccc(CN3CCC(C(=NNc4ccc(OC)cc4)c4ccc(OC(F)(F)F)cc4)CC3)cc2)n1 [Compound 116]
- Percent Mortality: 100%
- Percent Growth Inhibition: 100%

Structure (SMILES): CCn1nnc(-c2ccc(CN3CCC(C(=NNc4ccc(C(F)(F)F)cc4)c4ccc(C(F)(F)F)cc4)CC3)cc2)n1 [Compound 118]
- Percent Mortality: 100%
- Percent Growth Inhibition: 96%

Structure (SMILES): CCn1nnc(-c2ccc(CN3CCC(C(=NNc4ccc(OC(F)(F)F)cc4)c4ccc(C(F)(F)F)cc4)CC3)cc2)n1 [Compound 119]
- Percent Mortality: 100%
- Percent Growth Inhibition: 100%

Structure (SMILES): CCn1nnc(-c2ccc(CN3CCC(C(=NNc4ccccc4C(F)(F)F)c4ccc(OC(F)(F)F)cc4)CC3)cc2)n1 [Compound 120]
- Percent Mortality: 0%
- Percent Growth Inhibition: 40%

Structure (SMILES): CCn1nnc(-c2ccc(CN3CCC(C(=NNc4cccc(C(F)(F)F)c4)c4ccc(OC(F)(F)F)cc4)CC3)cc2)n1 [Compound 121]
- Percent Mortality: 100%
- Percent Growth Inhibition: 100%

Structure (SMILES): CCn1nnc(-c2ccc(CN3CCC(C(=NNc4ccc(C(F)(F)F)cc4)c4ccc(OC(F)(F)F)cc4)CC3)cc2)n1 [Compound 122]
- Percent Mortality: 100%
- Percent Growth Inhibition: 96%

Structure (SMILES): Cn1nnc(-c2ccc(CN3CCC(C(=NNc4ccc(OC(F)(F)F)cc4)c4ccc(OC(F)(F)F)cc4)CC3)cc2)n1 [Compound 123]
- Percent Mortality: 100%
- Percent Growth Inhibition: 100%

Structure (SMILES): CCn1nnc(-c2ccc(CN3CCC(C(=NNc4ccc(OC(F)(F)F)cc4)c4ccc(OC(F)(F)F)cc4)CC3)cc2)n1 [Compound 124]
- Percent Mortality: 100%
- Percent Growth Inhibition: 100%

Structure (SMILES): CCn1nnc(-c2ccc(CN3CCC(C(=NNc4ccc(S(N)(=O)=O)cc4)c4ccc(OC(F)(F)F)cc4)CC3)cc2)n1 [Compound 125]
- Percent Mortality: 100%
- Percent Growth Inhibition: 100%

Structure (SMILES): CCn1nnc(-c2ccc(CN3CCC(C(=NNc4ccc([N+](=O)[O-])cc4)c4ccc(OC(F)(F)F)cc4)CC3)cc2)n1 [Compound 126]
- Percent Mortality: 100%
- Percent Growth Inhibition: 100%

Structure (SMILES): CCn1nnc(-c2ccc(CN3CCC(C(=NNCc4ccc(C(F)(F)F)cc4)c4ccc(OC(F)(F)F)cc4)CC3)cc2)n1 [Compound 127]
- Percent Mortality: 100%
- Percent Growth Inhibition: 100%

Structure (SMILES): CCn1nnc(-c2ccc(CN3CCC(C(=NNCc4ccc(OC(F)(F)F)cc4)c4ccc(OC(F)(F)F)cc4)CC3)cc2)n1 [Compound 128]
- Percent Mortality: 0%
- Percent Growth Inhibition: 96%

Structure (SMILES): CCn1nnc(-c2ccc(CN3CCC(C(=NNS(=O)(=O)c4ccc(C(F)(F)F)cc4)c4ccc(OC(F)(F)F)cc4)CC3)cc2)n1 [Compound 129]
- Percent Mortality: 100%
- Percent Growth Inhibition: 95%

Structure (SMILES): CCn1nnc(-c2ccc(CN3CCC(C(=NNS(=O)(=O)c4ccc(OC(F)(F)F)cc4)c4ccc(OC(F)(F)F)cc4)CC3)cc2)n1 [Compound 130]
- Percent Mortality: 100%
- Percent Growth Inhibition: 100%

Structure (SMILES): O=C(NN=C(c1ccc(OC(F)(F)F)cc1)C1CCN(Cc2ccc(Oc3ccccn3)cc2)CC1)c1ccc(Cl)cc1 [Compound 131]
- Percent Mortality: 50%
- Percent Growth Inhibition: 100%

Structure (SMILES): O=C(NN=C(c1ccc(OC(F)(F)F)cc1)C1CCN(Cc2ccc(Oc3ccccn3)cc2)CC1)c1ccc(C(F)(F)F)cc1 [Compound 132]
- Percent Mortality: 83%
- Percent Growth Inhibition: 100%

Structure (SMILES): Cn1nnc(-c2ccc(CN3CCC(C(=NNC(=O)c4ccccc4Cl)c4ccc(OC(F)(F)F)cc4)CC3)cc2)n1 [Compound 136]
- Percent Mortality: 76%
- Percent Growth Inhibition: 0%

Structure (SMILES): Cn1nnc(-c2ccc(CN3CCC(C(=NNC(=O)c4cccc(Cl)c4)c4ccc(OC(F)(F)F)cc4)CC3)cc2)n1 [Compound 137]
- Percent Mortality: 100%
- Percent Growth Inhibition: 100%

Structure (SMILES): Cn1nnc(-c2ccc(CN3CCC(C(=NNC(=O)c4ccc(Cl)cc4)c4ccc(Cl)cc4)CC3)cc2)n1 [Compound 138]
- Percent Mortality: 0%
- Percent Growth Inhibition: 14%

Structure (SMILES): Cn1nnc(-c2ccc(CN3CCC(C(=NNC(=O)c4ccc(Cl)cc4)c4ccc(OC(F)(F)F)cc4)CC3)cc2)n1 [Compound 139]
- Percent Mortality: 100%
- Percent Growth Inhibition: 100%

Structure (SMILES): Cn1nnc(-c2ccc(CN3CCC(C(=NNC(=O)c4ccc(Br)cc4)c4ccc(OC(F)(F)F)cc4)CC3)cc2)n1 [Compound 140]
- Percent Mortality: 100%
- Percent Growth Inhibition: 100%

Structure (SMILES): Cn1nnc(-c2ccc(CN3CCC(C(=NNC(=O)c4cccc(F)c4)c4ccc(OC(F)(F)F)cc4)CC3)cc2)n1 [Compound 142]
- Percent Mortality: 67%
- Percent Growth Inhibition: 100%

Structure (SMILES): Cn1nnc(-c2ccc(CN3CCC(C(=NNC(=O)c4ccc(F)cc4)c4ccc(OC(F)(F)F)cc4)CC3)cc2)n1 [Compound 143]
- Percent Mortality: 17%
- Percent Growth Inhibition: 87%

Structure (SMILES): Cn1nnc(-c2ccc(CN3CCC(C(=NNC(=O)c4ccc(I)cc4)c4ccc(OC(F)(F)F)cc4)CC3)cc2)n1 [Compound 144]
- Percent Mortality: 100%
- Percent Growth Inhibition: 100%

Structure (SMILES): Cc1ccc(C(=O)NN=C(c2ccc(OC(F)(F)F)cc2)C2CCN(Cc3ccc(-c4nnn(C)n4)cc3)CC2)cc1 [Compound 145]
- Percent Mortality: 100%
- Percent Growth Inhibition: 100%

Structure (SMILES): COc1ccc(C(=O)NN=C(c2ccc(OC(F)(F)F)cc2)C2CCN(Cc3ccc(-c4nnn(C)n4)cc3)CC2)cc1 [Compound 146]
- Percent Mortality: 100%
- Percent Growth Inhibition: 100%

Structure (SMILES): CCn1nnc(-c2ccc(CN3CCC(C(=NNC(=O)c4ccc(C(F)(F)F)cc4)c4ccc(OC(F)(F)F)cc4)CC3)cc2)n1 [Compound 147]
- Percent Mortality: 100%
- Percent Growth Inhibition: 92%

Structure (SMILES): Cn1nnc(-c2ccc(CN3CCC(C(=NNC(=O)c4ccc(OC(F)(F)F)cc4)c4ccc(OC(F)(F)F)cc4)CC3)cc2)n1 [Compound 148]
- Percent Mortality: 100%
- Percent Growth Inhibition: 100%
